Columns and labels:
Assay type in all cases: cell-based
[1] = tested on: Respiratory syncytial virus recombinant with luciferase (RSV-Luc5); assay: HEp-2 RSV-Luc5 384-well assay (EC50 RSVFLUC Hep2-384 v2), Example V; details: human respiratory syncytial virus, HEp-2, 72 h, read-out: EC50 RSV FLuc Hep-2 384 V2 (per Ex. V)
Text: Example V: HEp-2 RSV-Luc5 384-Well Assay (EC50 RSVFLUC Hep2-384 v2)
HEp-2 cell line was purchased from ATCC (Manassas, VA Cat #CCL-23) and maintained in Dulbecco's […] (DMEM) (Corning, New York, NY, Cat #15-018CM) supplemented with 10% fetal bovine serum (FBS) (Hyclone, Logan, UT, Cat #SH30071-03) and 1× Penicillin-Streptomycin-L-Glutamine (Corning, New York, NY, Cat #30-009-C1). Cells were passaged 2 times per week to maintain sub-confluent densities and were used for experiments at passage 5-20. Respiratory syncytial virus recombinant with luciferase (RSV-Luc5) (≥1×107 TCID50/ml) was purchased from Microbiologics (Saint Cloud, MN). Viral replication was determined in HEp-2 cells in the following manner.
(§1) Compounds are prepared in 100% DMSO in 384-well polypropylene plates (Greiner, Monroe, NC, Cat #784201) with 8 compounds per plate in grouped replicates of 4 at 10 serially diluted concentrations (1:3). The serially diluted compounds were transferred to low dead volume Echo plates (Labcyte, Sunnyvale, CA, Cat #LP-0200).
The test compounds were spotted to 384-well assay plates (Greiner, Monroe, NC, Cat #781091) at 200 nL per well. HEp-2 cells were harvested and suspended in DMEM (supplemented with 10% FBS and 1× Penicillin-Streptomycin-L-Glutamine) and seeded to the pre-spotted assay plates at 4,000 cells per well in 30 μL. RSV-Luc5 viruses were diluted in DMEM (supplemented with 10% FBS and 1× Penicillin-Streptomycin-L-(Glutamine) at 200,000 Infectious Units (IU) per mL and 10 μL per well was added to the assay plates containing cells and compounds, for an MOI=0.5. The assay plates were incubated for 3 days at 37° C. and 5% CO2. At the end of incubation, One-Glo reagent (Promega, Madison, WI, Cat #E6120) was prepared. The assay plates and One-Glo reagent were equilibrated to room temperature for at least 15 minutes. 40 μL per well of One-Glo reagent was added and the plates were incubated at room temp for 15 minutes before reading the luminescence signal on an EnVision multimode plate reader (Perkin Elmer, Waltham, MA). Remdesivir was used as positive control and DMSO was used as negative control. Values were normalized to the positive and negative controls (as 0% and 100% replication, respectively) and data was fitted using non-linear regression analysis by Gilead's dose response tool. The EC50 value for each compound was then determined as the concentration reducing the viral replication by 50%.

[2] = tested on: Human Rhinovirus 14 (HRV14); assay: H1-HeLa HRV-CTG 384-well assay, HRV14, Example X; details: Rhinovirus B, 96 h; H1-HeLa cells, HRV14 MOI 1.0, 4 days, Celltiter-Glo; read-out: EC50 H1-HeLa_HRV 14_HRV-CTG 384-well Assay (per Ex. X)
Text: (§2) Example X: H1-HeLa HRV-CTG 384-Well Assay
(§3) H1-Hela cell line (ATCC, Manassas, VA, Cat #CRL-1958) was maintained in Dulbecco's […] (DMEM) (Corning, New York, NY, Cat #15-018CM) supplemented with 10% fetal bovine serum (FBS) (Hyclone, Logan, UT, Cat #SH30071-03), and 1× Penicillin-Streptomycin-L-Glutamine (Corning, New York, NY, Cat #30-009-CI). Cells were passaged 2 times per week to maintain sub-confluent densities and were used for experiments at passage 5-30. The Human Rhinovirus 1B (HRV1B) (ATCC, Manassas, VA, Cat #VR-1645), Human Rhinovirus 14 (HRV14) (ATCC, Manassas, VA, Cat #VR-284), and Human Rhinovirus 16 (HRV16) (ATCC, Manassas, VA, Cat #BR-283) was obtained through ATCC. Viral infection was monitored by determining viability of H1-HeLa cells as described below.
as §1, with “Test molecules” for “Compounds”
(§4) The test compounds were spotted to 384-well assay plates (Greiner, Monroe, NC, Cat #781091) at 200 nL per well using an Echo acoustic dispenser (Labcyte, Sunnyvale, CA). H1-HeLa cells were harvested and suspended in DMEM (supplemented with 2% FBS and 1× Penicillin-Streptomycin-L-Glutamine) and seeded to the pre-spotted assay plates at 5,000 cells per well in 30 μL. HRV1B, HRV14, and HRV16 was diluted in DMEM (supplemented with 2% FBS and 1× Penicillin-Streptomycin-L-Glutamine) at 97.1 million Infectious Units (IU) per mL, 151 million IU per mL and 221 million IU per mL respectively. 10 μL of virus per well was added to the assay plates containing cells and compounds, for an MOI of 0.5, 1.0, and 0.25 respectively. The assay plates were incubated for 4 days at 37° C. and 5% CO2. At the end of incubation, Celltiter-Glo (Promega, Madison, WI, Cat #G7573) was prepared. The assay plates and Celltiter-Glo reagent were equilibrated to room temperature for at least 15 minutes. 40 μL per well of Celltiter-Glo reagent was added and the plates were incubated at room temperature for 15 minutes before reading the luminescence signal on an EnVision multimode plate reader (Perkin Elmer, Waltham, MA). Rupintrivir was used as positive control and DMSO was used as negative control. Values were normalized to the positive and negative controls (as 0% and 100% replication, respectively) and data was fitted using non-linear regression analysis by Gilead's dose response tool. The EC50 value for each compound was defined as the concentration reducing viral replication by 50%.

[3] = tested on: Human Rhinovirus 1B (HRV1B); assay: H1-HeLa HRV-CTG 384-well assay, HRV1B, Example X; details: Rhinovirus A, 96 h; H1-HeLa cells, HRV1B MOI 0.5, 4 days, Celltiter-Glo; read-out: EC50 H1-HeLa_HRV 1B_HRV-CTG 384-well Assay (per Ex. X)
Text: as §2, §3
as §1, with “Test molecules” for “Compounds”
as §4

SMILES	EC50 [1]	EC50 [2]	EC50 [3]
N#C[C@]1(COC(=O)OC2CCCC2)O[C@@H](c2ccc3c(N)ncnn23)[C@H](O)[C@@H]1O [Compound 1, ((2R,3S,4R,5S)-5-(4-aminopyrrolo[2,1-f][1,2,4]triazin-7-yl)-2-cyano-3,4-dihydroxytetrahydrofuran-2-yl)methyl cyclopentyl carbonate]	21.2 µM	19.1 µM	8.65 µM
CC(C)(C)COC(=O)OC[C@@]1(C#N)O[C@@H](c2ccc3c(N)ncnn23)[C@H](O)[C@@H]1O [Compound 2, ((2R,3S,4R,5S)-5-(4-aminopyrrolo[2,1-f][1,2,4]triazin-7-yl)-2-cyano-3,4-dihydroxytetrahydrofuran-2-yl)methyl neopentyl carbonate]	9.49 µM	7.66 µM	7 µM
CC[C@H](C)OC(=O)OC[C@@]1(C#N)O[C@@H](c2ccc3c(N)ncnn23)[C@H](O)[C@@H]1O [Compound 4, ((2R,3S,4R,5S)-5-(4-aminopyrrolo[2,1-f][1,2,4]triazin-7-yl)-2-cyano-3,4-dihydroxytetrahydrofuran-2-yl)methyl ((S)-sec-butyl) carbonate]	24.1 µM	22.2 µM	11.2 µM
N#C[C@]1(COC(=O)OCCc2ccccc2)O[C@@H](c2ccc3c(N)ncnn23)[C@H](O)[C@@H]1O [Compound 5, ((2R,3S,4R,5S)-5-(4-aminopyrrolo[2,1-f][1,2,4]triazin-7-yl)-2-cyano-3,4-dihydroxytetrahydrofuran-2-yl)methyl phenethyl carbonate]	17.9 µM	9.75 µM	3.35 µM
COC(=O)OC[C@@]1(C#N)O[C@@H](c2ccc3c(N)ncnn23)[C@H](O)[C@@H]1O [Compound 6, ((2R,3S,4R,5S)-5-(4-aminopyrrolo[2,1-f][1,2,4]triazin-7-yl)-2-cyano-3,4-dihydroxytetrahydrofuran-2-yl)methyl methyl carbonate]	17.8 µM	15.2 µM	8.91 µM
CC(C)CCOC(=O)OC[C@@]1(C#N)O[C@@H](c2ccc3c(N)ncnn23)[C@H](O)[C@@H]1O [Compound 7, ((2R,3S,4R,5S)-5-(4-aminopyrrolo[2,1-f][1,2,4]triazin-7-yl)-2-cyano-3,4-dihydroxytetrahydrofuran-2-yl)methyl isopentyl carbonate]	16.8 µM	7.31 µM	2.81 µM
CC(C)COC(=O)OC[C@@]1(C#N)O[C@@H](c2ccc3c(N)ncnn23)[C@H](O)[C@@H]1O [Compound 8, ((2R,3S,4R,5S)-5-(4-aminopyrrolo[2,1-f][1,2,4]triazin-7-yl)-2-cyano-3,4-dihydroxytetrahydrofuran-2-yl)methyl isobutyl carbonate]	11.5 µM	7.6 µM	5.16 µM
CCCOC(=O)OC[C@@]1(C#N)O[C@@H](c2ccc3c(N)ncnn23)[C@H](O)[C@@H]1O [Compound 9, ((2R,3S,4R,5S)-5-(4-aminopyrrolo[2,1-f][1,2,4]triazin-7-yl)-2-cyano-3,4-dihydroxytetrahydrofuran-2-yl)methyl propyl carbonate]	13.3 µM	14.7 µM	7.57 µM
CC[C@@H](C)OC(=O)OC[C@@]1(C#N)O[C@@H](c2ccc3c(N)ncnn23)[C@H](O)[C@@H]1O [Compound 10, ((2R,3S,4R,5S)-5-(4-aminopyrrolo[2,1-f][1,2,4]triazin-7-yl)-2-cyano-3,4-dihydroxytetrahydrofuran-2-yl)methyl ((R)-sec-butyl) carbonate]	24.7 µM	35.7 µM	18.1 µM
CC(C)OC(=O)OC[C@@]1(C#N)O[C@@H](c2ccc3c(N)ncnn23)[C@H](O)[C@@H]1O [Compound 11, ((2R,3S,4R,5S)-5-(4-aminopyrrolo[2,1-f][1,2,4]triazin-7-yl)-2-cyano-3,4-dihydroxytetrahydrofuran-2-yl)methyl isopropyl carbonate]	31.2 µM	31.1 µM	12.2 µM
